The values that follow come from US12558428B2, “Heterobifunctional compounds and their use in treating disease” (Halda Therapeutics OpCo, Inc., priority 2024, dated 2026).

Common to all, as to type: cell-based
The subject of test [1] is T-Rex 293 cells lacking increased expression of estrogen receptor alpha protein. The test is described as follows: Cellular growth inhibition assay, T-Rex 293 cells, (−) doxycycline. Conditions: Table 7-A, T-Rex 293 cells without doxycycline (lacking increased ERα expression), 72 hours, CellTiter-Glo, read-out: (−) Dox GI50. The gist of the method:
(§1)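 ERα overexpression was switched on by 3 ng/mL doxycycline in a stably transfected T-Rex 293 clone, while uninduced cells served as the comparison line. Proliferation over 72 h of compound treatment was assessed by ATP luminescence, and GI50 values came from four-parameter curves.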
In general terms: In ATP-based viability assays light output follows the ATP content of the culture.

For test [2], the system named is MCF7 cells (ATCC #HTB-22). Put plainly: Cellular growth inhibition assay, MCF7 cells purchased from ATCC. Conditions: Table 8-A, MCF7 cells purchased from ATCC, six days, CellTiter-Glo, read-out: GI50. The gist of the method:
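MCF7 cells in RPMI 1640 with 10% FBS and 0.2 U/ml insulin, seeded at 1,500 cells/well (ATCC) or 225 cells/well (ECACC). Compounds added 24 h later, then 6 days at 37° C. Viability by CellTiter-Glo 2.0 luminescence. GI50 from four-parameter fit.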

Test [3] concerns T-Rex 293 cells having increased expression of estrogen receptor alpha protein. The test is described as follows: Cellular growth inhibition assay, T-Rex 293 cells, (+) doxycycline. Conditions: Table 7-A, T-Rex 293 cells with doxycycline (increased ERα expression), 72 hours, CellTiter-Glo, read-out: (+) Dox GI50. The gist of the method:
as §1

Where two headings read alike, the source gives them in different places.

Usually GI50 stands for the concentration at which growth is held to half of that of the control.

As to `Cc1sc2c(c1C)C(c1ccc(C3CCN(CC4(O)CCN(c5ccc([C@@H]6c7ccc(O)cc7CC[C@@H]6c6ccccc6)cc5)CC4)CC3)cc1)=N[C@@H](C)c1nnc(C)n1-2` [III-26], the 50% growth inhibitory concentration (GI50) in test [1] (T-REx-293, 72 h) was 0.05 to 0.5 µM; in test [2] (Homo sapiens, MCF7, 144 h), 0.05 to 0.5 µM; in test [3] (T-REx-293, 72 h), less than 0.05 µM.

With `Cc1sc2c(c1C)C(c1ccc(C3CCN(CC4(O)CCN(c5ccc([C@H]6c7ccc(O)cc7CC[C@H]6c6ccccc6)cc5)CC4)CC3)cc1)=N[C@@H](C)c1nnc(C)n1-2` [III-27], the GI50 in test [1] (T-REx-293, 72 h) is 0.05 to 0.5 µM; in test [2] (Homo sapiens, MCF7, 144 h), 0.05 to 0.5 µM; in test [3] (T-REx-293, 72 h), less than 0.05 µM.

Regarding `Cc1sc2c(c1C)C(c1ccc(N[C@H]3CCN(CCOc4ccc([C@@H]5c6ccc(O)cc6CC[C@@H]5c5ccccc5)cc4)C3)cc1)=NC(Cc1ncco1)c1nnc(C)n1-2` (stereo partly drawn) [III-28], the GI50 fell in the range of 0.05 to 0.5 µM in test [1] (T-REx-293, 72 h); 0.05 to 0.5 µM in test [2] (Homo sapiens, MCF7, 144 h); 0.05 to 0.5 µM in test [3] (T-REx-293, 72 h).

In the case of `Cc1sc2c(c1C)C(c1ccc(NCCN3CCN(CCOc4ccc([C@@H]5c6ccc(O)cc6CC[C@@H]5c5ccccc5)cc4)CC3)cc1)=NC(Cc1ncco1)c1nnc(C)n1-2` (stereo partly drawn) [III-29], the 50% growth inhibitory concentration (GI50) in test [1] (T-REx-293, 72 h) is 0.05 to 0.5 µM; in test [2] (Homo sapiens, MCF7, 144 h), 0.05 to 0.5 µM; in test [3] (T-REx-293, 72 h) it was less than 0.05 µM.

For `Cc1sc2c(c1C)C(c1ccc(NCC3(F)CCN(CCOc4ccc([C@@H]5c6ccc(O)cc6CC[C@@H]5c5ccccc5)cc4)CC3)cc1)=NC(Cc1ncco1)c1nnc(C)n1-2` (stereo partly drawn) [III-30], the 50% growth inhibitory concentration (GI50) in test [1] (T-REx-293, 72 h) was 0.05 to 0.5 µM; in test [2] (Homo sapiens, MCF7, 144 h), 0.05 to 0.5 µM; in test [3] (T-REx-293, 72 h) it was less than 0.05 µM.

As for `Cc1sc2c(c1C)C(c1ccc(N3C4CCC3CN(CCOc3ccc([C@@H]5c6ccc(O)cc6CC[C@@H]5c5ccccc5)cc3)C4)cc1)=NC(Cc1ncco1)c1nnc(C)n1-2` (stereo partly drawn) [III-31], the 50% growth inhibitory concentration (GI50) was 0.05 to 0.5 µM in test [1] (T-REx-293, 72 h); 0.05 to 0.5 µM in test [2] (Homo sapiens, MCF7, 144 h); more than 2.5 µM in test [3] (T-REx-293, 72 h).

Turning to `Cc1sc2c(c1C)C(c1ccc(NCCN3CCN(CCOc4ccc([C@@H]5c6ccc(O)cc6CC[C@@H]5c5ccccc5)cc4)CC3)cc1)=NC(Cc1ncco1)c1nnc(C)n1-2` (stereo partly drawn) [III-32], the GI50 in test [1] is 0.05 to 0.5 µM; in test [2] it was 0.05 to 0.5 µM; in test [3] it was less than 0.05 µM.

On to `Cc1sc2c(c1C)C(c1ccc(NCC3CCN(CCOc4ccc([C@@H]5c6ccc(O)cc6CC[C@@H]5c5ccccc5)cc4)CC3)cc1)=NC(Cc1ncco1)c1nnc(C)n1-2` (stereo partly drawn) [III-33], for which the GI50 in test [1] (T-REx-293, 72 h) is 0.05 to 0.5 µM; in test [2] (Homo sapiens, MCF7, 144 h) it was 0.05 to 0.5 µM; in test [3] (T-REx-293, 72 h), less than 0.05 µM.

Take `Cc1sc2c(c1C)C(c1ccc(NC3CCCN(CCOc4ccc([C@@H]5c6ccc(O)cc6CC[C@@H]5c5ccccc5)cc4)CC3)cc1)=NC(Cc1ncco1)c1nnc(C)n1-2` (stereo partly drawn) [III-34]: the concentration for 50% growth inhibition (GI50) in test [1] (T-REx-293, 72 h) was 0.05 to 0.5 µM; in test [2] (Homo sapiens, MCF7, 144 h), 0.05 to 0.5 µM; in test [3] (T-REx-293, 72 h), less than 0.05 µM.

Regarding `Cc1sc2c(c1C)C(c1ccc(N3CCC(N4CCN(CCOc5ccc([C@@H]6c7ccc(O)cc7CC[C@@H]6c6ccccc6)cc5)CC4)CC3)cc1)=NC(Cc1ncco1)c1nnc(C)n1-2` (stereo partly drawn) [III-35], the GI50 in test [1] (T-REx-293, 72 h) was 0.05 to 0.5 µM; in test [2] (Homo sapiens, MCF7, 144 h) it was less than 0.05 µM; in test [3] (T-REx-293, 72 h), less than 0.05 µM.

Turning to `Cc1sc2c(c1C)C(c1ccc(N3CCC4(CCN(CCOc5ccc([C@@H]6c7ccc(O)cc7CC[C@@H]6c6ccccc6)cc5)C4)CC3)cc1)=NC(Cc1ncco1)c1nnc(C)n1-2` (stereo partly drawn) [III-36], the GI50 in test [1] (T-REx-293, 72 h) is 0.05 to 0.5 µM; in test [2] (Homo sapiens, MCF7, 144 h), less than 0.05 µM; in test [3] (T-REx-293, 72 h) it was less than 0.05 µM.

`Cc1sc2c(c1C)C(c1ccc(NCCCN3CCN(CCOc4ccc([C@@H]5c6ccc(O)cc6CC[C@@H]5c5ccccc5)cc4)CC3)cc1)=NC(Cc1ncco1)c1nnc(C)n1-2` (stereo partly drawn) [III-37]: the GI50 in test [1] (T-REx-293, 72 h) is 0.05 to 0.5 µM; in test [2] (Homo sapiens, MCF7, 144 h) it was less than 0.05 µM; in test [3] (T-REx-293, 72 h) it was less than 0.05 µM.

Consider `Cc1sc2c(c1C)C(c1ccc(N3CCC4(CCN(CCOc5ccc([C@@H]6c7ccc(O)cc7CC[C@@H]6c6ccccc6)cc5)CC4)CC3)cc1)=NC(Cc1ncco1)c1nnc(C)n1-2` (stereo partly drawn) [III-38], for which the 50% growth inhibitory concentration (GI50) in test [1] (T-REx-293, 72 h) was 0.05 to 0.5 µM; in test [2] (Homo sapiens, MCF7, 144 h), less than 0.05 µM; in test [3] (T-REx-293, 72 h), less than 0.05 µM.

Regarding `Cc1sc2c(c1C)C(c1ccc(NC[C@@H]3CN(CCOc4ccc([C@@H]5c6ccc(O)cc6CC[C@@H]5c5ccccc5)cc4)CCO3)cc1)=NC(Cc1ncco1)c1nnc(C)n1-2` (stereo partly drawn) [III-39], the concentration for 50% growth inhibition (GI50) in test [1] (T-REx-293, 72 h) is 0.05 to 0.5 µM; in test [2] (Homo sapiens, MCF7, 144 h) it was less than 0.05 µM; in test [3] (T-REx-293, 72 h), less than 0.05 µM.

As for `Cc1sc2c(c1C)C(c1ccc(N3C[C@H]4C[C@@H]3CN4CCOc3ccc([C@@H]4c5ccc(O)cc5CC[C@@H]4c4ccccc4)cc3)cc1)=NC(Cc1ncco1)c1nnc(C)n1-2` (stereo partly drawn) [III-40], the GI50 in test [1] (T-REx-293, 72 h) is 0.05 to 0.5 µM; in test [2] (Homo sapiens, MCF7, 144 h) it was less than 0.05 µM; in test [3] (T-REx-293, 72 h), 0.05 to 0.5 µM.
